This is an account of results in PubChem BioAssay (NCI).

Among the test systems are NCI-H460 lung; A498 renal; OVCAR-4 ovarian; NCI-H522 lung; SK-MEL-5 melanoma; MOLT-4 leukemia; HS 578T breast; NCI/ADR-RES ovarian; MDA-MB-231 breast; SNB-75 CNS.
What all share (assay): growth of human tumour cells (NCI), 48 h

Molecules are shown by their SMILES.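 In this assay, cells in 96-well plates receive the compound at five concentrations for 48 hours. Endpoints are linearly interpolated between the surrounding concentrations. GI50: concentration for 50% inhibition of growth. At the TGI there is no net growth.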 Where only a bound is given, the exact number is not on record here.

As for `O=C1CCCCC=C1C[N+](=O)[O-]`, the GI50 was 34.3 µM in the test with NCI-H460 lung; greater than 100 µM in the test on A498 renal; 21.4 µM with OVCAR-4 ovarian; 14.6 µM in the test with NCI-H522 lung; 26.9 µM with SK-MEL-5 melanoma; 11.9 µM in the test on MOLT-4 leukemia. For the same molecule, the GI50 with HS 578T breast was 41.8 µM; in the test with NCI/ADR-RES ovarian it was 36.3 µM; in the test on MDA-MB-231 breast, 22.2 µM; in the test with SNB-75 CNS it was 25.5 µM. For the same molecule, the TGI is greater than 100 µM in the test on NCI-H460 lung; greater than 100 µM in the test on A498 renal; 46 µM in the test with OVCAR-4 ovarian; 37 µM in the test with NCI-H522 lung; 74.3 µM in the test with SK-MEL-5 melanoma; 31 µM with MOLT-4 leukemia. Moreover, the TGI in the test on HS 578T breast is greater than 100 µM; in the test with NCI/ADR-RES ovarian, greater than 100 µM; in the test with MDA-MB-231 breast, 49.4 µM; with SNB-75 CNS it was 68.8 µM.

`Nc1nc2c(nnn2C2OC(CO)C(O)C2O)c(=O)[nH]1` (stereo not given): the GI50 in the test with NCI-H460 lung was 1.51 µM; with A498 renal, 1.86 µM; in the test on OVCAR-4 ovarian it was 1.59 µM; with NCI-H522 lung, 0.596 µM; with SK-MEL-5 melanoma it was 2.44 µM; in the test with MOLT-4 leukemia it was 0.847 µM. Moreover, the GI50 is 12 µM with HS 578T breast, 1.23 µM in the test on NCI/ADR-RES ovarian, 4.48 µM in the test on MDA-MB-231 breast and 5.86 µM in the test on SNB-75 CNS. In addition, the TGI with NCI-H460 lung is greater than 40.6 µM; with A498 renal, greater than 30.2 µM; with OVCAR-4 ovarian, greater than 100 µM; in the test with NCI-H522 lung, 6.74 µM; in the test with SK-MEL-5 melanoma, 9.24 µM; in the test on MOLT-4 leukemia, greater than 100 µM. The TGI with HS 578T breast, in the test with NCI/ADR-RES ovarian, with MDA-MB-231 breast and in the test with SNB-75 CNS was greater than 100 µM each time.

As to `Cc1ccc(/C=C/C(=N/N=C(N)N)c2ccccc2)cc1`, the GI50 with NCI-H460 lung was 3.1 µM; with A498 renal, 1.04 µM; in the test with OVCAR-4 ovarian, 3.65 µM; with NCI-H522 lung, 1.8 µM; with SK-MEL-5 melanoma, 1.69 µM; with MOLT-4 leukemia, 3.01 µM. Moreover, the GI50 in the test with HS 578T breast is 1.56 µM; in the test with NCI/ADR-RES ovarian, 3.14 µM; in the test on MDA-MB-231 breast, 1.7 µM; in the test on SNB-75 CNS, 2.04 µM. Further, the TGI in the test with NCI-H460 lung worked out at 10.1 µM; in the test on A498 renal it was 4.92 µM; with OVCAR-4 ovarian it was 15.6 µM; with NCI-H522 lung, 5.12 µM; in the test with SK-MEL-5 melanoma, 3.86 µM; in the test on MOLT-4 leukemia it was 9.1 µM. The TGI is 5.14 µM in the test with HS 578T breast, 12 µM in the test with NCI/ADR-RES ovarian, 4.56 µM in the test on MDA-MB-231 breast and 7.41 µM with SNB-75 CNS.

As to `CCOC(=O)c1ccc2c(c1)nc(/C=C/c1ccc(Cl)cc1)n2-c1cc(C(C)(C)C)[nH]n1`, the GI50 is 6.28 µM in the test on NCI-H460 lung; 3.03 µM in the test on A498 renal; 1.9 µM with OVCAR-4 ovarian; 2.84 µM in the test on NCI-H522 lung; 3.63 µM in the test on SK-MEL-5 melanoma; 4.74 µM with MOLT-4 leukemia. Moreover, the GI50 with HS 578T breast was 3.6 µM; with NCI/ADR-RES ovarian it was 10.1 µM; in the test with MDA-MB-231 breast, 2.37 µM; in the test on SNB-75 CNS, 1.9 µM. Besides, the TGI in the test with NCI-H460 lung was greater than 100 µM; with A498 renal, 41.7 µM; in the test on OVCAR-4 ovarian, 7.31 µM; in the test on NCI-H522 lung it was 10.6 µM; in the test with SK-MEL-5 melanoma, 28.3 µM; in the test on MOLT-4 leukemia, greater than 100 µM. The TGI in the test with HS 578T breast is 61.8 µM; with NCI/ADR-RES ovarian, greater than 100 µM; in the test with MDA-MB-231 breast, 7.57 µM; in the test with SNB-75 CNS, 5.51 µM.

Regarding `O=C(c1ccco1)c1c(C(F)(F)F)nc2ccc(C(F)(F)F)cc2[n+]1[O-]`, the GI50 in the test with NCI-H460 lung was greater than 63.2 µM; in the test with A498 renal, 42.4 µM; in the test on OVCAR-4 ovarian it was 24.1 µM; in the test with NCI-H522 lung, 62.1 µM; with SK-MEL-5 melanoma, 31.4 µM; with MOLT-4 leukemia it was greater than 100 µM. In addition, the GI50 is 21.2 µM in the test on HS 578T breast, 44.2 µM in the test with NCI/ADR-RES ovarian, 23.7 µM with MDA-MB-231 breast and 16.9 µM with SNB-75 CNS. Besides, the TGI in the test with NCI-H460 lung was greater than 100 µM; with A498 renal, greater than 79.7 µM; in the test with OVCAR-4 ovarian, 68.6 µM; in the test with NCI-H522 lung it was greater than 100 µM; in the test on SK-MEL-5 melanoma, greater than 67.1 µM; in the test with MOLT-4 leukemia, greater than 100 µM. For the same molecule, the TGI in the test with HS 578T breast is 54.5 µM; with NCI/ADR-RES ovarian, greater than 100 µM; with MDA-MB-231 breast, 65.4 µM; with SNB-75 CNS, 36.4 µM.

As for `O=C1C(=O)c2ccccc2C(O)=C1CCCc1ccc(C2CCCC2)cc1`, the GI50 in the test with NCI-H460 lung is 3.11 µM; in the test with A498 renal, 7.24 µM; in the test on OVCAR-4 ovarian it was 5.92 µM; in the test on NCI-H522 lung it was 5.01 µM; with SK-MEL-5 melanoma, 3.79 µM; in the test on MOLT-4 leukemia, 3.72 µM. Also, the GI50 with HS 578T breast was 20.6 µM; in the test with NCI/ADR-RES ovarian it was 5.89 µM; with MDA-MB-231 breast, 11.1 µM; in the test with SNB-75 CNS, 6.55 µM. The TGI worked out at 11.8 µM in the test on NCI-H460 lung; 23 µM in the test with A498 renal; 39.7 µM with OVCAR-4 ovarian; 25.9 µM in the test on NCI-H522 lung; 14.5 µM in the test on SK-MEL-5 melanoma; 12.3 µM in the test with MOLT-4 leukemia. The TGI with HS 578T breast stood at 85.1 µM; in the test on NCI/ADR-RES ovarian, 30.2 µM; in the test on MDA-MB-231 breast it was 43.9 µM; in the test with SNB-75 CNS, 38.7 µM.

In the case of `NS(=O)(=O)c1ccc(NCc2cnc3ccccc3n2)cc1`, the TGI in the test on NCI-H460 lung, in the test on A498 renal, in the test with OVCAR-4 ovarian, in the test with NCI-H522 lung, in the test with SK-MEL-5 melanoma and with MOLT-4 leukemia was greater than 100 µM each time. The TGI in the test with HS 578T breast, with NCI/ADR-RES ovarian, with MDA-MB-231 breast and in the test with SNB-75 CNS was greater than 100 µM in each case.
